Values of other authors as cited in US20120053222A1, “Novel Metabolic Disease Therapy” (priority 2009, published 2012).

Test system: ob/ob mice
Details: injection

For exendin 4, the liver steatosis is given as “diminishes liver steatosis”.
